How the values were obtained:
[1] = Protein binding in rat plasma; format: ADME, cell-free; settings: read-out: PPB (converted)
[2] = Clearance in rat at 1 mg/kg, iv; format: ADME, organism-based; settings: in vivo
[3] = Intrinsic clearance in rat liver microsomes
[4] = target: T1, Bromodomain and PHD finger-containing protein 3 (Homo sapiens, UniProt Q9ULD4); test: Inhibition of BRPF3 (unknown origin) measured after 70 mins by TR-FRET assay
T1 sequence (Q9ULD4 whole entry): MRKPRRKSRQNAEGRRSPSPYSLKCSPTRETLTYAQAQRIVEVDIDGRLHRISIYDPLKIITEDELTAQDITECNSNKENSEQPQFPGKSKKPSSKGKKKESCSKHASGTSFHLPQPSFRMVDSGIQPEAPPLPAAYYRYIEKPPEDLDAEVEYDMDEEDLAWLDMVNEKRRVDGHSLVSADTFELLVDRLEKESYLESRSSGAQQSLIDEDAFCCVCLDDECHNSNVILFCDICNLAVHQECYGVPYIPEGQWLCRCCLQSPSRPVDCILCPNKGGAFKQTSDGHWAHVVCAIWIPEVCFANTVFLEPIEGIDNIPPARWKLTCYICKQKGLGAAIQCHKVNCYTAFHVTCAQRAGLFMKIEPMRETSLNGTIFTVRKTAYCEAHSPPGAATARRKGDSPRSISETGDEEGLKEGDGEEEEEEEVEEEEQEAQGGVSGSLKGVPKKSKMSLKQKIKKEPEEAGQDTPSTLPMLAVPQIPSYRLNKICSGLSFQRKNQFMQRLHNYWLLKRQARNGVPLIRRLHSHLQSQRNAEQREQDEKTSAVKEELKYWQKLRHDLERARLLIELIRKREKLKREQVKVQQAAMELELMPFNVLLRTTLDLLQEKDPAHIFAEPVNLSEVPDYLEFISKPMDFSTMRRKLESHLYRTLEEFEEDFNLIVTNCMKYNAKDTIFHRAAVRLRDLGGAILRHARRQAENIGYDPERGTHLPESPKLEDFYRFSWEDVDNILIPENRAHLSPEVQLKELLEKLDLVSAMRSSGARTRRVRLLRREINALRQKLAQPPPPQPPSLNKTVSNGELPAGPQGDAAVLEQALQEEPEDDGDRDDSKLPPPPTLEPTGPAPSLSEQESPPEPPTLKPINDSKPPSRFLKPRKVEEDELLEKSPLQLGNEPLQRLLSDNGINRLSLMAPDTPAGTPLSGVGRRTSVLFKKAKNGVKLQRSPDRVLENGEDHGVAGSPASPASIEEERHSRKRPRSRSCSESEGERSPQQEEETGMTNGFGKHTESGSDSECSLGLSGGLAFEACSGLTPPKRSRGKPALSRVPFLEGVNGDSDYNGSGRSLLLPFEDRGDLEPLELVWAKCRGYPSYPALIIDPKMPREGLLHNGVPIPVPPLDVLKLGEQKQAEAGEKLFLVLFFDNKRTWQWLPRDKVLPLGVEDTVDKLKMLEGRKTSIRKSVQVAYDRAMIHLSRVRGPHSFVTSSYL

[5] = Inhibition of BET in human THP-1 cells assessed as suppression of LPS-induced IL-6 release measured after 16 hrs by chemiluminescence ELISA; format: cell-based; settings: THP-1, 16 h
[6] = Intrinsic clearance in dog liver microsomes
[7] = Protein binding in mouse plasma
[8] = target: T2, Bromodomain-containing protein 1 (Homo sapiens, UniProt O95696); test: Inhibition of BRD1 (unknown origin) measured after 70 mins by TR-FRET assay
T2 sequence (O95696 whole entry): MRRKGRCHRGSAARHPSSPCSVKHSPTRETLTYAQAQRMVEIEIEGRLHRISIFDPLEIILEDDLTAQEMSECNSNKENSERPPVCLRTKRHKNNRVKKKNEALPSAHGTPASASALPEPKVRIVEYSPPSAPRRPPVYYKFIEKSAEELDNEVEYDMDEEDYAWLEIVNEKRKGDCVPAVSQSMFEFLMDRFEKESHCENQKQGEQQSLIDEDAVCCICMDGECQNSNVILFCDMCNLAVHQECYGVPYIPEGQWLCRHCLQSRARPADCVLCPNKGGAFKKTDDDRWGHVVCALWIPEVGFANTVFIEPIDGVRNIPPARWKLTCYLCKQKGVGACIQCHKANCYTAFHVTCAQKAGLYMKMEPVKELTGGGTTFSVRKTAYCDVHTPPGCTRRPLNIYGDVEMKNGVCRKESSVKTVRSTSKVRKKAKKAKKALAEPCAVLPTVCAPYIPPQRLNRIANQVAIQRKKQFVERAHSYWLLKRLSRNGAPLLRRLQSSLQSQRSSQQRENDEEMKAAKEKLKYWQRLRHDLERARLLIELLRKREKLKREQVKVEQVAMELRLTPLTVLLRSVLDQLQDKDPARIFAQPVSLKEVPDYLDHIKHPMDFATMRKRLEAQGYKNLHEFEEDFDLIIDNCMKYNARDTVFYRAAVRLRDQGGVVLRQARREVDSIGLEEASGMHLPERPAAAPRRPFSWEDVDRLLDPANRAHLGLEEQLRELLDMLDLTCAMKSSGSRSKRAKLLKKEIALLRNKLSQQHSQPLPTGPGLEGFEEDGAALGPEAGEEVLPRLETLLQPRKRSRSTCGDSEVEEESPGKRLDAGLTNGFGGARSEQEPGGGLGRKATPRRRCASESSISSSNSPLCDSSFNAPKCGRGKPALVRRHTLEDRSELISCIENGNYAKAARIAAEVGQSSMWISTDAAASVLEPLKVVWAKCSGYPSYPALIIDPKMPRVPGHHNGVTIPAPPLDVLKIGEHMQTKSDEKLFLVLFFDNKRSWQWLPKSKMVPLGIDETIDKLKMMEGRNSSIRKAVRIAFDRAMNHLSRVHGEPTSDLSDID

For `Cc1nnc2n1-c1ccc(-c3ccc(N)nc3)cc1N(c1ccc(Cl)cc1)C[C@H]2C`, the fraction unbound [1] was 0.04, the clearance [2] was 63.3 mL/min/kg and the microsomal CLint [3] was 26 µL/min/mg. The IC50 [4] was greater than 15 µM, the EC50 [5] was 0.013 µM and the microsomal CLint [6] was 19 µL/min/mg. For the same molecule, the fraction unbound [7] was 0.02 and the IC50 [8] was greater than 15 µM.
